Experimental data published in PubChem BioAssay (NCI).
“And” between values parts separate entries of the source, which are not always exact repeats. Equal values may be shown once.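 Tested at 5 concentrations; 48 h exposure; 96-well plates; endpoints linearly interpolated, else capped at highest concentration. GI50: concentration for 50% inhibition of growth. Definition used: TGI = concentration required for complete inhibition of growth.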

Key:
Test in all cases: growth of human tumour cells (NCI), 48 h
RXF 393 renal = system: RXF 393 renal
SR leukemia = system: SR leukemia
M19-MEL melanoma = system: M19-MEL melanoma
SK-MEL-28 melanoma = system: SK-MEL-28 melanoma
HOP-62 NSCLC = system: HOP-62 NSCLC
HCT-116 colon = system: HCT-116 colon
CCRF-CEM leukemia = system: CCRF-CEM leukemia
RPMI-8226 leukemia = system: RPMI-8226 leukemia
786-0 renal = system: 786-0 renal
DMS 273 small cell lung = system: DMS 273 small cell lung

Row | Compound | TGI (RXF 393 renal) | TGI (SR leukemia) | TGI (M19-MEL melanoma) [µM] | TGI (SK-MEL-28 melanoma) | TGI (HOP-62 NSCLC) | TGI (HCT-116 colon) [µM] | TGI (CCRF-CEM leukemia) [µM] | TGI (RPMI-8226 leukemia) | TGI (786-0 renal) | GI50 (RXF 393 renal) [µM] | GI50 (SR leukemia) [µM] | GI50 (SK-MEL-28 melanoma) [µM] | GI50 (HOP-62 NSCLC) [µM] | GI50 (HCT-116 colon) [µM] | GI50 (CCRF-CEM leukemia) [µM] | GI50 (RPMI-8226 leukemia) [µM] | GI50 (786-0 renal) [µM] | TGI (DMS 273 small cell lung) [µM]
1 | CS/C(C)=N/OC(=O)NCCCCNc1ccc(N=[N+]=[N-])cc1 | > 100 µM | > 100 µM | > 100 | > 100 µM | > 100 µM | > 100 | > 100 | > 100 µM | > 100 µM | – | – | – | – | – | – | – | – | –
2 | O=C1CCC2(c3ccccc3)Nc3ncccc3N12 (centres undefined) | > 100 µM | – | > 100 | > 100 µM | > 100 µM | – | > 100 | > 100 µM | > 100 µM | – | – | – | – | – | – | – | – | –
3 | C=CC1C(OC2OC(CO)C(O)C(O)C2O)OC=C(C(=O)OC)C1CC=O (centres undefined) | > 100 µM | > 100 µM | > 100 | > 100 µM | > 100 µM | – | – | > 100 µM | > 100 µM | – | – | – | – | – | – | – | – | –
4 | CN(C)CC1CCCCCC(CN(C)C)C1=O (centres undefined) | 3.35 µM | 7.14 µM | – | 10.5 µM | 27.3 µM | 3.91 | 3.87 | 13.9 µM | 33.2 µM | 1.58 | 2.1 | 3.65 | 13 | 1.07 | 1.38 | 3.15 | 12.8 | –
5 | COC(=O)c1cc(-c2cccn2C)c2c(c1C(=O)OC)c1ccccc1n2C | > 100 µM | > 100 µM | – | > 100 µM | – | – | – | > 100 µM | > 100 µM | – | – | – | – | – | – | – | – | > 100
6 | Nc1nc(N)c(N=O)c(OCC2CCCCC2)n1 | 42.3 µM and 48.1 µM | > 85.9 µM and 27.4 µM | – | > 100 µM and 76.5 µM | > 100 µM and 76.5 µM | > 100 | > 100 | 98.7 µM and 36.1 µM | > 100 µM and 84.1 µM | 8.04 | 6.22 | 13.2 | – | – | 8.83 | 9.17 | 20.9 | –
7 | Clc1nc(Cl)c(-c2ccccc2)c(Cl)n1 | 5.58 µM | 6.85 µM | – | 19.3 µM | 33 µM | 3.6 | 8.28 | 6.16 µM | 6.55 µM | – | – | – | – | – | – | – | – | –
8 | Nc1c(C(=O)Nc2ccccc2)sc2nc3c(cc12)CN(Cc1ccccc1)CC3 | 54.3 µM | > 100 µM | – | > 100 µM | 33.3 µM | > 100 | > 100 | > 100 µM | > 100 µM | 3.15 | 13.1 | 23.2 | 4.11 | 11 | 50.3 | 55.8 | 13 | –
9 | CCCCCCCOc1c(OC)cc(C2CC(=O)Nc3c2c(C)nn3-c2nc3ccccc3[nH]2)cc1OC (centres undefined) | 5.02 µM | > 100 µM | – | 8.61 µM | 14.2 µM | > 100 | > 100 | > 100 µM | 21.8 µM | 1.96 | 3.08 | 2.77 | 3.09 | 3.49 | 4.15 | 3.71 | 3.61 | –
10 | CCCOc1nc(SCCC)nc2c1cnn2-c1ccccc1 | > 100 µM | > 100 µM | – | > 100 µM | > 100 µM | > 100 | > 100 | > 100 µM | > 100 µM | 78.9 | 32.2 | > 100 | > 100 | 55.3 | 56.7 | 70.9 | > 100 | –
11 | C=C1CCC2C3(C)COC(c4ccccc4Br)OC3CCC2(C)C1C/C=C1/C(=O)OCC1OC(C)=O (centres undefined) | 2.96 µM | 0.706 µM | – | 3.15 µM | 3.46 µM | 0.751 | 3.96 | 6.52 µM | 2.98 µM | 1.54 | 0.215 | 1.76 | 1.94 | 0.289 | 0.381 | 0.645 | 1.63 | –
12 | COc1cc2c3c(n(C)c(=O)c2cc1OC)-c1cc2c(cc1/C3=C\C(N)CN)OCO2 (centres undefined) | 3.38 µM | – | – | 41.8 µM | 8.91 µM | 2.44 | 3.63 | 26.1 µM | 9.92 µM | 0.666 | 0.219 | 4.45 | 1.29 | 1.16 | 0.333 | 6.43 | 1.27 | –
13 | CCC(/C=C/c1ccccc1)=N\Nc1ccc(Cl)c(Cl)c1 | 58.4 µM | > 100 µM | – | > 100 µM | > 100 µM | > 100 | > 100 | 50.1 µM | > 100 µM | – | – | – | – | – | – | – | – | –
14 | Nc1n[nH]c2cccc(C#Cc3cccc(C(=O)Nc4cc(CN5CCOCC5)cc(C(F)(F)F)c4)c3)c12 | 7.92 µM | 22.9 µM | – | 12.1 µM | 18.1 µM | 11.1 | 20.3 | 27.3 µM | 15 µM | 2.21 | 2.69 | 2.99 | 4.5 | 2 | 3.68 | 3.19 | 3.97 | –
15 | c1ccc(CSc2nnc3c4ccccc4c4ccccc4c3n2)cc1 | > 79.5 µM | > 100 µM | – | > 100 µM | 75.6 µM | > 100 | 72.5 | > 100 µM | > 92.5 µM | – | – | – | – | – | – | – | – | –
16 | CCN1C(=O)N(CC)C2C1NN=c1s/c(=C\c3cc4ccccc4[nH]3)c(=O)n12 (centres undefined) | 11.6 µM | – | – | > 83 µM | 18.7 µM | > 37.2 | > 100 | 2.19 µM | 22.3 µM | < 0.0187 | < 0.01 | 2.77 | 0.0412 | < 0.01 | 0.0208 | < 0.0185 | 0.0387 | –
17 | CCCc1cc(=O)n2c(C(=O)Nc3ccccc3OC)c(C(=O)Nc3ccc(F)cc3)sc2n1 | 12.1 µM | 25.3 µM | – | 61.8 µM | 13.9 µM | 22.2 | 59 | 32.8 µM | 10.2 µM | 5.14 | 4.57 | 22 | 2.21 | 4.61 | 24.7 | 3.15 | 2.91 | –
18 | O=C(CCCSc1nc(-c2ccccc2)cc(-c2ccc(Cl)cc2)n1)NO | 2.55 µM | 13.2 µM | – | 15.3 µM | 17.4 µM | 13.1 | 13 | 8.42 µM | 13.3 µM | 0.445 | 0.364 | 3.51 | 1.04 | 1.04 | 0.882 | 1.65 | 1.47 | –
19 | Cn1cc(-c2ccc(-c3cn(C)c4ccc(Cl)cc34)s2)c2cc(Cl)ccc21 | > 100 µM | > 100 µM | – | > 100 µM | > 100 µM | > 100 | > 100 | > 100 µM | > 100 µM | 70.3 | > 100 | > 100 | > 100 | > 100 | > 100 | > 100 | > 100 | –
20 | O=C(c1cccnc1)c1cc(-c2ccccn2)c(=O)n2ccccc12 | > 100 µM | > 100 µM | – | > 100 µM | > 100 µM | > 100 | > 100 | > 100 µM | > 100 µM | > 100 | > 100 | > 100 | > 100 | > 100 | > 100 | > 100 | > 100 | –
21 | COc1ccc2c(c1)C(C)Cc1c(Cl)nc(C)nc1N2C (centres undefined) | 20.8 µM | > 100 µM | – | 38.5 µM | 36.3 µM | 16.4 | > 100 | 36 µM | 32 µM | 2.78 | 2.44 | 3.4 | 2.22 | 1.84 | 3.17 | 4.14 | 3.94 | –
22 | COc1cc(C2CC(c3ccc(N(C)C)cc3)=NN2C(C)=O)cc(OC)c1OC (centres undefined) | > 22.9 µM | > 100 µM | – | > 100 µM | > 100 µM | > 45.4 | > 100 | > 39.3 µM | > 78 µM | 2.73 | 2.39 | 21 | 2.16 | 1.22 | 8.17 | 3.77 | 2.36 | –
23 | CCNCCNc1cc(C2CCCCC2)c(C#N)c2nc3ccccc3n12 | 3.19 µM | 1.04 µM | – | 3.36 µM | 6.93 µM | 2.72 | 3.28 | 5.02 µM | 3.04 µM | 1.7 | 0.288 | 1.7 | 2.28 | 1.37 | 1.3 | 2.11 | 1.57 | –
24 | C=C1CCc2occ(C)c2C2C1C1=C(CC(C)C1=O)C1OC12C (centres undefined) | > 100 µM | – | > 100 | > 100 µM | > 100 µM | > 100 | > 100 | – | > 100 µM | – | – | – | – | – | – | – | – | –
25 | O=C(N/N=C/c1cc([N+](=O)[O-])ccc1O)c1cccc2ccccc12 | 35.1 µM | 16.1 µM | – | 80.8 µM | 35.2 µM | > 100 | 38.6 | 62.2 µM | 27.7 µM | 4.14 | 1.81 | 3.11 | 3.73 | 2.56 | 0.905 | 3.35 | 3.29 | –
26 | CS(=O)(=O)Nc1ccc(N=Cc2c(O)[nH]c3ccccc23)cc1 | > 25 µM | > 25 µM | – | > 25 µM | > 25 µM | > 25 | > 25 | > 25 µM | > 25 µM | > 25 | > 25 | > 25 | > 25 | > 25 | > 20 | > 25 | > 25 | –
